In patent US11149018B2, “Substituted N-arylethyl-2-aminoquinoline-4-carboxamides and use thereof” (Bayer Aktiengesellschaft, priority 2017, dated 2021):
Structures can show the parent of a compound that is named as a salt.

Target: FP receptor (Homo sapiens (Human), UniProt P43088)
Assay: In vitro test of inhibition of human FP receptor activity (PGF2α-induced calcium flux in FP-expressing CHEM1 cells)
Type: cell-based
Conditions: PGF2α 2 nM, some mean values of multiple determinations
How it was run: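 FP antagonism in FP-expressing CHEM1 cells loaded with Fluo-8. Compound preincubated 10 min at 37° C, then receptor stimulated with 2 nM (final) PGF2α in calcium-free Tyrode with 2 mM CaCl2.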

Sequence of FP receptor (P43088 whole entry): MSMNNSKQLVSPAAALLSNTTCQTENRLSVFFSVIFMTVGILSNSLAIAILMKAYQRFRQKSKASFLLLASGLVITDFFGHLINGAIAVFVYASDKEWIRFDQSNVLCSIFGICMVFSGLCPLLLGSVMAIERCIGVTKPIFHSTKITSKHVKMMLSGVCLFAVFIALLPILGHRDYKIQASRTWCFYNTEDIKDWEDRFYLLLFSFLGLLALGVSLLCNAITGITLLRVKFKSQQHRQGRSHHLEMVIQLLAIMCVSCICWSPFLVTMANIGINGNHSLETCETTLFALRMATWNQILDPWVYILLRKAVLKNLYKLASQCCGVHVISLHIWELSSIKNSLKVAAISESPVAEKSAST

IC50 [nM] | SMILES
1.4 | Cc1c(N2CCCCC2)nc2ccc(Br)cc2c1C(=O)NCC(CCC(=O)O)c1c(F)cccc1C(F)(F)F (single isomer, unassigned; (-)) [Example 161, (−)-5-({[6-Bromo-3-methyl-2-(piperidin-1-yl)quinolin-4-yl]carbonyl}amino)-4-[2-fluoro-6-(trifluoromethyl)phenyl]pentanoic acid]
2.9 | Cc1c(N2CCCC2)nc2ccc(Br)cc2c1C(=O)NCC(CCC(=O)O)c1c(F)cccc1C(F)(F)F (single isomer, unassigned; (-)) [Example 165, (−)-5-({[6-Bromo-3-methyl-2-(pyrrolidin-1-yl)quinolin-4-yl]carbonyl}amino)-4-[2-fluoro-6-(trifluoromethyl)phenyl]pentanoic acid]
3.7 | Cc1c(N2CCCC(F)(F)C2)nc2ccc(Br)cc2c1C(=O)NCC(CCC(=O)O)c1c(F)cccc1C(F)(F)F (single isomer, unassigned; (-)) [Example 167, (−)-5-({[6-Bromo-2-(3,3-difluoropiperidin-1-yl)-3-methylquinolin-4-yl]carbonyl}amino)-4-[2-fluoro-6-(trifluoromethyl)phenyl]pentanoic acid]
2.2 | Cc1c(N2CCCCC2)nc2ccc(Br)cc2c1C(=O)NCC(CCC(=O)O)c1c(Cl)ccc(Cl)c1Cl (single isomer, unassigned; (-)) [Example 173, (−)-5-({[6-Bromo-3-methyl-2-(piperidin-1-yl)quinolin-4-yl]carbonyl}amino)-4-(2,3,6-trichlorophenyl)pentanoic acid]
7.8 | Cc1c(N2CCCC2)nc2ccc(Br)cc2c1C(=O)NCC(CCC(=O)O)c1c(Cl)ccc(Cl)c1Cl (single isomer, unassigned; (-)) [Example 176, formate]
2.3 | Cc1c(N2CCCC(F)(F)C2)nc2ccc(Br)cc2c1C(=O)NCC(CCC(=O)O)c1c(Cl)ccc(Cl)c1Cl (single isomer, unassigned; (-)) [Example 179, (−)-5-({[6-Bromo-2-(3,3-difluoropiperidin-1-yl)-3-methylquinolin-4-yl]carbonyl}amino)-4-(2,3,6-trichlorophenyl)pentanoic acid]
1.6 | Cc1c(N2CCCCC2)nc2ccc(Br)cc2c1C(=O)NCC(CCC(=O)O)c1c(F)cccc1OC(F)F (single isomer, unassigned; (-)) [Example 183, (−)-5-({[6-Bromo-3-methyl-2-(piperidin-1-yl)quinolin-4-yl]carbonyl}amino)-4-[2-(difluoromethoxy)-6-fluorophenyl]pentanoic acid]
4 | Cc1c(N2CCCC(F)C2)nc2ccc(Br)cc2c1C(=O)NCC(CCC(=O)O)c1ccccc1Cl (single isomer, unassigned; (-)) [Example 185, (−)-5-[({6-Bromo-2-[3-fluoropiperidin-1-yl]-3-methylquinolin-4-yl}carbonyl)amino]-4-(2-chlorophenyl)pentanoic acid]
8.6 | Cc1c(N2CCCC(F)C2)nc2ccc(Br)cc2c1C(=O)NCC(CCC(=O)O)c1ccccc1Cl (single isomer, unassigned; (-)) [Example 186, (−)-5-[({6-Bromo-2-[3-fluoropiperidin-1-yl]-3-methylquinolin-4-yl}carbonyl)amino]-4-(2-chlorophenyl)pentanoic acid]
11 | CCC1CCCN(c2nc3ccc(Br)cc3c(C(=O)NCC(CCC(=O)O)c3ccccc3C(F)(F)F)c2C)C1 (single isomer, unassigned; (-)) [Example 194, (−)-5-[({6-Bromo-2-[3-ethylpiperidin-1-yl]-3-methylquinolin-4-yl}carbonyl)amino]-4-[2-(trifluoromethyl)phenyl]pentanoic acid]
1.6 | Cc1c(N2CCCC(C)C2)nc2ccc(Br)cc2c1C(=O)NCC(CCC(=O)O)c1ccccc1C(F)(F)F (single isomer, unassigned; (-)) [Example 199, (−)-5-[({6-Bromo-3-methyl-2-[3-methylpiperidin-1-yl]quinolin-4-yl}carbonyl)amino]-4-[2-(trifluoromethyl)phenyl]pentanoic acid]
17 | Cc1c(N2CCCC(C)C2)nc2ccc(Br)cc2c1C(=O)NCC(CCC(=O)O)c1ccccc1C(F)(F)F (single isomer, unassigned; (-)) [Example 200, (−)-5-[({6-Bromo-3-methyl-2-[3-methylpiperidin-1-yl]quinolin-4-yl}carbonyl)amino]-4-[2-(trifluoromethyl)phenyl]pentanoic acid]
2.7 | Cc1c(N2CCCC(F)C2)nc2ccc(Br)cc2c1C(=O)NCC(CCC(=O)O)c1ccccc1OC(F)(F)F (single isomer, unassigned; (-)) [Example 201, (−)-5-[({6-Bromo-2-[3-fluoropiperidin-1-yl]-3-methylquinolin-4-yl}carbonyl)amino]-4-[2-(trifluoromethoxy)phenyl]pentanoic acid]
1.7 | Cc1c(N2CCCC(F)C2)nc2ccc(Br)cc2c1C(=O)NCC(CCC(=O)O)c1ccccc1OC(F)(F)F (single isomer, unassigned; (-)) [Example 202, (−)-5-[({6-Bromo-2-[3-fluoropiperidin-1-yl]-3-methylquinolin-4-yl}carbonyl)amino]-4-[2-(trifluoromethoxy)phenyl]pentanoic acid]
22 | CCC1CCCN(c2nc3ccc(Br)cc3c(C(=O)NCC(CCC(=O)O)c3ccccc3OC(F)(F)F)c2C)C1 (single isomer, unassigned; (-)) [Example 207, (−)-5-[({6-Bromo-2-[3-ethylpiperidin-1-yl]-3-methylquinolin-4-yl}carbonyl)amino]-4-[2-(trifluoromethoxy)phenyl]pentanoic acid]
7 | Cc1c(N2CCCC(C)C2)nc2ccc(Br)cc2c1C(=O)NCC(CCC(=O)O)c1ccccc1OC(F)(F)F (single isomer, unassigned; (-)) [Example 209, (−)-5-[({6-Bromo-3-methyl-2-[3-methylpiperidin-1-yl]quinolin-4-yl}carbonyl)amino]-4-[2-(trifluoromethoxy)phenyl]pentanoic acid]
0.68 | Cc1c(N2CCCC(C)C2)nc2ccc(Br)cc2c1C(=O)NCC(CCC(=O)O)c1ccccc1OC(F)(F)F (single isomer, unassigned; (-)) [Example 210, (−)-5-[({6-Bromo-3-methyl-2-[3-methylpiperidin-1-yl]quinolin-4-yl}carbonyl)amino]-4-[2-(trifluoromethoxy)phenyl]pentanoic acid]
10 | Cc1ccc(F)cc1C(CCC(=O)O)CNC(=O)c1c(C)c(N2CCCC(F)(F)C2)nc2ccc(Br)cc12 (single isomer, unassigned; (-)) [Example 213, (−)-5-({[6-Bromo-2-(3,3-difluoropiperidin-1-yl)-3-methylquinolin-4-yl]carbonyl}amino)-4-(5-fluoro-2-methylphenyl)pentanoic acid]
2.9 | Cc1c(N2CCCC2)nc2ccc(Br)cc2c1C(=O)NCC(CCC(=O)O)c1c(F)ccc(F)c1Cl (single isomer, unassigned; (-)) [Example 216, (−)-5-({[6-Bromo-3-methyl-2-(pyrrolidin-1-yl)quinolin-4-yl]carbonyl}amino)-4-(2-chloro-3,6-difluorophenyl)pentanoic acid]
1.2 | Cc1c(N2CCCC(F)(F)C2)nc2ccc(Br)cc2c1C(=O)NCC(CCC(=O)O)c1c(F)ccc(F)c1Cl (single isomer, unassigned; (-)) [Example 218, (−)-5-({[6-Bromo-2-(3,3-difluoropiperidin-1-yl)-3-methylquinolin-4-yl]carbonyl}amino)-4-(2-chloro-3,6-difluorophenyl)pentanoic acid]
12 | Cc1ccccc1C(CCC(=O)O)CNC(=O)c1c(C)c(N2CCCC(F)(F)C2)nc2ccc(Br)cc12 (single isomer, unassigned; (-)) [Example 230, (−)-5-({[6-Bromo-2-(3,3-difluoropiperidin-1-yl)-3-methylquinolin-4-yl]carbonyl}amino)-4-(2-methylphenyl)pentanoic acid]
8.9 | Cc1ccccc1C(CCC(=O)O)CNC(=O)c1c(C)c(N2CCCC2)nc2ccc(Br)cc12 (single isomer, unassigned; (-)) [Example 234, (−)-5-({[6-Bromo-3-methyl-2-(pyrrolidin-1-yl)quinolin-4-yl]carbonyl}amino)-4-(2-methylphenyl)pentanoic acid]
11 | COc1ccccc1C(CCC(=O)O)CNC(=O)c1c(C)c(N2CCCCC2)nc2ccc(Br)cc12 (single isomer, unassigned; (-)) [Example 236, (−)-5-({[6-Bromo-3-methyl-2-(piperidin-1-yl)quinolin-4-yl]carbonyl}amino)-4-(2-methoxyphenyl)pentanoic acid]
44 | COc1ccccc1C(CCC(=O)O)CNC(=O)c1c(C)c(N2CCCC2)nc2ccc(Br)cc12 (single isomer, unassigned; (-)) [Example 238, (−)-5-({[6-Bromo-3-methyl-2-(pyrrolidin-1-yl)quinolin-4-yl]carbonyl}amino)-4-(2-methoxyphenyl)pentanoic acid]
16 | COc1ccccc1C(CCC(=O)O)CNC(=O)c1c(C)c(N2CCCCCC2)nc2ccc(Br)cc12 (single isomer, unassigned; (-)) [Example 240, (−)-5-({[2-(Azepan-1-yl)-6-bromo-3-methylquinolin-4-yl]carbonyl}amino)-4-(2-methoxyphenyl)pentanoic acid]
9.4 | Cc1c(N2CCCC2)nc2ccc(Br)cc2c1C(=O)NCC(CCC(=O)O)c1c(F)cccc1F (single isomer, unassigned; (-)) [Example 249, (−)-5-({[6-Bromo-3-methyl-2-(pyrrolidin-1-yl)quinolin-4-yl]carbonyl}amino)-4-(2,6-difluorophenyl)pentanoic acid]
9.4 | Cc1c(N2CCCC(F)(F)C2)nc2ccc(Br)cc2c1C(=O)NCC(CCC(=O)O)c1c(F)cccc1F (single isomer, unassigned; (-)) [Example 252, (−)-5-({[6-Bromo-2-(3,3-difluoropiperidin-1-yl)-3-methylquinolin-4-yl]carbonyl}amino)-4-(2,6-difluorophenyl)pentanoic acid]
